Reference: patent US11999746B2, “Compounds” (GlaxoSmithKline Intellectual Property Development Limited, priority 2014, dated 2024)

molecular target: T1, Lp-PLA2 in human plasma (Homo sapiens, UniProt Q13093); assay: (3a) Lp-PLA2 human plasma Thio-PAF assay; format: biochemical; details: (3a) Thio-PAF assay, pooled human plasma; Examples 1-265 and 413-430 were tested here; read-out: pIC50 in the Lp-PLA2 human plasma assay (converted)
T1 construct: from tissue; host or cells: pooled human plasma
T1 sequence (Q13093 22-441): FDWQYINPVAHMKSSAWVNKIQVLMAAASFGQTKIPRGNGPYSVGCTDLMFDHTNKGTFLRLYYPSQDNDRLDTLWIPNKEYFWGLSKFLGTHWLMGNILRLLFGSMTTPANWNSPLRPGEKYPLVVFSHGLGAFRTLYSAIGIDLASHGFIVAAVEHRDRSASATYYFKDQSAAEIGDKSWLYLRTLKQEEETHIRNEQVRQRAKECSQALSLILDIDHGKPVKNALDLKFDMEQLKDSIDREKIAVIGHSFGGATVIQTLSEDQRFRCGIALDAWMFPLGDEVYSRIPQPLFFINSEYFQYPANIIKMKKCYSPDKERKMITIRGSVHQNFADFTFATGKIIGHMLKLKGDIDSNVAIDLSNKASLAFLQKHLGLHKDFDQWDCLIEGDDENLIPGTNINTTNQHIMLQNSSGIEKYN
Excerpt: (3) Lipoprotein-Associated Phospholipase A2 (Lp-PLA2) Human Plasma Assay
The human plasma assay utilizes a thioester analog of PAF (phosphatidylcholine), where hydrolysis yields to the formation of a phospholipid containing a free thiol group. The amount of thiol is quantitated continuously by reacting with CPM (7-diethylamino-3-(4′-maleimidylphenyl)-4-methylcoumarin), a maleimide which increases in fluoresence after Michael addition of thiols. This assay may detect the activity of Lp-PLA2 in human plasma, as determined by specific inhibition by Lp-PLA2 inhibitors.
The thio-PAF assay was run as a quenched 15 μL assay. Compounds source plate was prepared by making 1:3 (by volume) serial dilution of the compounds into pure DMSO on 384-well microplate. 0.01 μL of compounds on compound source plate were transferred to 384 well Greiner 784076 (black) low-volume plates by ECHO liquid dispenser. 8 μL pooled human plasma, which was previously aliquoted and frozen, was added. Plates were centrifuged for 10 sec at 500 rpm. After 30 minutes preincubation, 2 μL of substrate solution comprising 2.5 mM 2-thio-PAF [from ethanol stock], 32 μM CPM [from a DMSO stock] and 3.2 mM NEM (N-ethylmaleimide) [made fresh daily in DMSO] in assay buffer of 50 mM HEPES, pH 7.4, 150 mM NaCl, 1 mM CHAPS was added to 384 well Greiner 784076 (black) low-volume plates by BRAVO liquid handling station. After 2 mins, reaction was quenched with 5 μL of 5% aqueous trifluoroacetic acid (TFA). Plates were covered to protect from light and incubated for 40 min at room temperature. Plates were read at ex: 380/em: 485 using Envision microplate reader. PIC50 data, curve and QC analysis were conducted by using XLFit module in Excel.

IC50 [µM] | SMILES
≤ 10 | O=c1nc(OCc2cc(F)c(F)c(F)c2)cc2n1CC1OCCN21 (stereo not shown) [Example E188, 6-((3,4,5-Trifluorobenzyl)oxy)-10,10a-dihydro-2H-oxazolo[3′,2′:3,4]imidazo[1,2-c]pyrimidin-8(3H)-one]
≤ 10 | O=c1nc(OCc2cc(F)c(OC3(CCF)CC3)c(F)c2)cc2n1C[C@@H]1COCN21 [Example E193, (R)-6-((3,5-difluoro-4-(1-(2-fluoroethyl)cyclopropoxy)benzyl)oxy)-10,10a-dihydro-1H-oxazolo[3′,4′:3,4]imidazo[1,2-c]pyrimidin-8(3H)-one]
≤ 10 | O=c1nc(OCc2cc(F)c(OC3(CCF)CC3)c(F)c2)cc2n1C[C@H]1CCOCN21 [Example E195, (R)-3-((3,5-difluoro-4-(1-(2-fluoroethyl)cyclopropoxy)benzyl)oxy)-8,9,9a,10-tetrahydropyrimido[6′,1′:2,3]imidazo[1,5-c][1,3]oxazin-1(6H)-one]
≤ 10 | O=c1nc(OCc2cc(F)c(OC3(CCF)CC3)c(F)c2)cc2n1C[C@H]1COCN21 [Example E197, (S)-6-((3,5-difluoro-4-(1-(2-fluoroethyl)cyclopropoxy)benzyl)oxy)-10,10a-dihydro-1H-oxazolo[3′,4′:3,4]imidazo[1,2-c]pyrimidin-8(3H)-one]
≤ 10 | Cn1cc(Oc2c(F)cc(COc3cc4n(c(=O)n3)CC3OCCCN43)cc2F)cn1 (stereo not shown) [Example E200, 7-((3,5-Difluoro-4-((1-methyl-1H-pyrazol-4-yl)oxy)benzyl)oxy)-3,4,11,11a tetrahydropyrimido[6′,1′:2,3]imidazo[5,1-b][1,3]oxazin-9(2H)-one]
≤ 10 | O=c1nc(OCc2cc(F)c(OC3CCC(F)(F)CC3)c(F)c2)cc2n1C[C@@H]1CCCN21 [Example E206, (S)-3-((4-((4,4-difluorocyclohexyl)oxy)-3,5-difluorobenzyl)oxy)-7,8,8a,9-tetrahydropyrrolo[1′,2′:3,4]imidazo[1,2-c]pyrimidin-1(6H)-one]
≤ 10 | CCCCN1CC(Oc2c(F)cc(COc3cc4n(c(=O)n3)C[C@@H]3CCCN43)cc2F)C1 [Example E207, (S)-3-((4-((1-butylazetidin-3-yl)oxy)-3,5-difluorobenzyl)oxy)-7,8,8a,9-tetrahydropyrrolo[1′,2′:3,4]imidazo[1,2-c]pyrimidin-1(6H)-one]
≤ 10 | O=c1nc(OCc2cc(F)c(F)cc2F)cc2n1C[C@@H]1COCCN21 [Example E219, (R)-7-((2,4,5-trifluorobenzyl)oxy)-3,4,11,11a-tetrahydropyrimido[6′,1′:2,3]imidazo[5,1-c] [1,4]oxazin-9(1H)-one]
≤ 10 | O=c1nc(OCc2cc(F)c(F)cc2F)cc2n1C[C@H]1COCCN21 [Example E220, (S)-7-((2,4,5-trifluorobenzyl)oxy)-3,4,11,11a-tetrahydropyrimido[6′,1′:2,3]imidazo[5,1-c] [1,4]oxazin-9(1H)-one]

Second part, the molecule before the results:

SMILES | IC50 [µM]
O=c1nc(OCc2cc(F)cc(F)c2)cc2n1CC1OCCN21 (stereo not shown) [Example E184, 6-((3,5-Difluorobenzyl)oxy)-10,10a-dihydro-2H-oxazolo[3′,2′:3,4]imidazo[1,2-c]pyrimidin-8 (3H)-one] | ≤ 10
O=c1nc(OCCc2cccc(F)c2)cc2n1C[C@H]1COCN21 [Example E186, (S)-6-(3-fluorophenethoxy)-10,10a-dihydro-1H-oxazolo[3′,4′:3,4]imidazo[1,2-c]pyrimidin-8(3H)-one] | ≤ 10
O=c1nc(OCc2cccc(F)c2F)cc2n1CC1OCCN21 (stereo not shown) [Example E187, 6-((2,3-Difluorobenzyl)oxy)-10,10a-dihydro-2H-oxazolo[3′,2′:3,4]imidazo[1,2-c]pyrimidin-8(3H)-one] | ≤ 10
N#Cc1ccc(CCOc2cc3n(c(=O)n2)C[C@H]2COCN32)cc1 [Example E191, (S)-4-(2-((8-oxo-3,8,10,10a-tetrahydro-1H-oxazolo[3′,4′:3,4]imidazo[1,2-c]pyrimidin-6-yl)oxy)ethyl)benzonitrile] | ≤ 10
O=c1nc(OCc2ccc(CN3CCCC(F)(F)C3)c(F)c2)cc2n1C[C@@H]1CCCCN21 [Example E205, (S)-3-((4-((3,3-difluoropiperidin-1-yl)methyl)-3-fluorobenzyl)oxy)-6,7,8,9,9a,10-hexahydro-1H-pyrido[1′,2′:3,4]imidazo[1,2-c]pyrimidin-1-one] | ≤ 10
O=c1nc(OCc2cccc(F)c2F)cc2n1C[C@@H]1CCCN21 [Example E212, (S)-3-((2,3-difluorobenzyl)oxy)-7,8,8a,9-tetrahydropyrrolo[1′,2′:3,4]imidazo[1,2-c]pyrimidin-1(6H)-one] | ≤ 10
O=c1nc(OCc2cccc(F)c2)cc2n1C[C@@H]1CCCN21 [Example E214, (S)-3-((3-fluorobenzyl)oxy)-7,8,8a,9-tetrahydropyrrolo[1,2′:3,4]imidazo[1,2-c]pyrimidin-1(6H)-one] | ≤ 10
O=c1nc(OCc2cc(F)cc(F)c2)cc2n1C[C@@H]1CCCN21 [Example E215, (S)-3-((3,5-difluorobenzyl)oxy)-7,8,8a,9-tetrahydropyrrolo[1′,2′:3,4]imidazo[1,2-c]pyrimidin-1(6H)-one] | ≤ 10
O=c1nc(NCc2ccc(F)cc2F)cc2n1C[C@H]1CCCN21 [Example E216, (R)-3-((2,4-difluorobenzyl)amino)-7,8,8a,9-tetrahydropyrrolo[1,2′:3,4]imidazo[1,2-c] pyrimidin-1(6H)-one] | ≤ 10
O=c1nc(OCc2cc(F)c(F)cc2F)cc2n1C[C@H]1CCCN21 [Example E218, (R)-3-((2,4,5-trifluorobenzyl)oxy)-7,8,8a,9-tetrahydropyrrolo[1′,2′:3,4]imidazo[1,2-c]pyrimidin-1(6H)-one] | ≤ 10
O=c1nc(OCc2cccc(F)c2F)cc2n1C[C@@H]1COCCN21 [Example E221, (R)-7-((2,3-difluorobenzyl)oxy)-3,4,11,11a-tetrahydropyrimido[6′,1′:2,3]imidazo[5,1-c][1,4]oxazin-9(1H)-one] | ≤ 0.1
O=c1nc(OCc2cc(F)c(F)cc2F)cc2n1C[C@H]1CCCCN21 [Example E225, (R)-3-((2,4,5-trifluorobenzyl)oxy)-6,7,8,9,9a,10-hexahydro-1H-pyrido[1′,2′:3,4]imidazo[1,2-c]pyrimidin-1-one] | ≤ 10
O=c1nc(OCCc2cccc(F)c2)cc2n1C[C@@H]1COCCN21 [Example E246, (R)-7-(3-fluorophenethoxy)-3,4,11,11a-tetrahydropyrimido[6′,1′:2,3]imidazo[5,1-c][1,4] oxazin-9(1H)-one] | ≤ 10
O=c1nc(OCCc2cccc(F)c2)cc2n1C[C@H]1COCCN21 [Example E248, (S)-7-(3-fluorophenethoxy)-3,4,11,11a-tetrahydropyrimido[6′,1′:2,3]imidazo[5,1-c][1,4] oxazin-9(1H)-one] | ≤ 10
O=c1nc(OCCc2cccc(F)c2)cc2n1C[C@H]1CCCN21 [Example E249, (R)-3-(3-fluorophenethoxy)-7,8,8a,9-tetrahydropyrrolo[1′,2′:3,4]imidazo[1,2-c]pyrimidin-1(6H)-one] | ≤ 10
N#Cc1ccc(CCOc2cc3n(c(=O)n2)C[C@H]2CCCN32)cc1 [Example E254, (R)-4-(2-((1-oxo-1,6,7,8,8a,9-hexahydropyrrolo[1′,2′:3,4]imidazo[1,2-c]pyrimidin-3-yl)oxy)ethyl)benzonitrile] | ≤ 10
N#Cc1ccc(CCOc2cc3n(c(=O)n2)C[C@H]2COCCN32)cc1 [Example E255, (S)-4-(2-((9-oxo-1,3,4,9,11,11a-hexahydropyrimido[6′,1′:2,3]imidazo[5,1-c][1,4]oxazin-7-yl)oxy)ethyl)benzonitrile] | ≤ 10
O=c1nc(CCc2cccc(F)c2)cc2n1C[C@@H]1COCCN21 [Example E256, (R)-7-(3-fluorophenethyl)-3,4,11,11a-tetrahydropyrimido[6′,1′:2,3]imidazo[5,1-c][1,4]oxazin-9(1H)-one] | ≤ 10
O=c1nc(CCc2cccc(F)c2)cc2n1C[C@H]1COCCN21 [Example E257, (S)-7-(3-fluorophenethyl)-3,4,11,11a-tetrahydropyrimido[6′,1′:2,3]imidazo[5,1-c][1,4] oxazin-9(1H)-one] | ≤ 10
